Data as given in ChEMBL document CHEMBL1201862, “PubChem BioAssay data set” (2004).
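Interpolation was linear, between the two tested concentrations surrounding the appropriate level; five concentrations were tested over 48 hours in 96-well plates. GI50: concentration for 50% inhibition of growth.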 Active and inactive are the calls of the source. Cut-off read from the data, not from the text of the source: active = GI50 up to about 1.1 µM and inactive = higher.

Legend:
Test in all cases: NCI-60 cell line screen, 48 h
786-0 = tested on: 786-0
A498 = tested on: A498
A549 = tested on: A549
HCT-116 = tested on: HCT-116
HT-29 = tested on: HT-29
IGROV-1 = tested on: IGROV-1
KM-20L2 = tested on: KM-20L2
KM12 = tested on: KM12
M14 = tested on: M14
NCI-H226 = tested on: NCI-H226
NCI-H23 = tested on: NCI-H23
NCI-H522 = tested on: NCI-H522
RPMI-8226 = tested on: RPMI-8226
RXF 631 = tested on: RXF 631
SF-268 = tested on: SF-268
SF-539 = tested on: SF-539
SK-MEL-28 = tested on: SK-MEL-28
SK-OV-3 = tested on: SK-OV-3
SNB-19 = tested on: SNB-19
SNB-78 = tested on: SNB-78
SR = tested on: SR
SW-620 = tested on: SW-620
TK-10 = tested on: TK-10
UACC-257 = tested on: UACC-257
UO-31 = tested on: UO-31
ACHN = tested on: ACHN
CAKI-1 = tested on: CAKI-1
CCRF-CEM = tested on: CCRF-CEM
DLD-1 = tested on: DLD-1
DMS-114 = tested on: DMS-114
DMS-273 = tested on: DMS-273
EKVX = tested on: EKVX
HCC 2998 = tested on: HCC 2998
HCT-15 = tested on: HCT-15
HL-60 = tested on: HL-60
HOP-62 = tested on: HOP-62
K562 = tested on: K562
LOX IMVI = tested on: LOX IMVI
LXFL 529 = tested on: LXFL 529
M19-MEL = tested on: M19-MEL
MOLT-4 = tested on: MOLT-4
Malme-3M = tested on: Malme-3M
NCI-H460 = tested on: NCI-H460
OVCAR-3 = tested on: OVCAR-3
OVCAR-4 = tested on: OVCAR-4
OVCAR-8 = tested on: OVCAR-8
RXF 393 = tested on: RXF 393
SF-295 = tested on: SF-295
SK-MEL-2 = tested on: SK-MEL-2
SK-MEL-5 = tested on: SK-MEL-5
SN12C = tested on: SN12C
SNB-75 = tested on: SNB-75
U-251 = tested on: U-251
UACC-62 = tested on: UACC-62

Measured: GI50

Clc1ccc2c(c1)[nH]c1c2nc2ccccn21
inactive: 786-0 22.1 µM | A498 27.1 µM | A549 50.1 µM | HCT-116 21.2 µM | HT-29 21.9 µM | IGROV-1 30.8 µM | KM-20L2 27.9 µM | KM12 19.3 µM | M14 24.7 µM | NCI-H226 22.4 µM | NCI-H23 24.7 µM | NCI-H522 19.5 µM | RPMI-8226 23.7 µM | RXF 631 43 µM | SF-268 28.6 µM | SF-539 22.6 µM | SK-MEL-28 21.3 µM | SK-OV-3 30.3 µM | SNB-19 22.4 µM | SNB-78 24 µM | SR 25.1 µM | SW-620 18.5 µM | TK-10 > 10 µM | UACC-257 29.2 µM | UO-31 19.5 µM

CC(CCCOC(c1ccccc1)(c1ccccc1)c1ccccc1)OC(=O)Nc1cc([N+](=O)[O-])cc([N+](=O)[O-])c1 (stereo not given)
32.4 µM: HCT-15
inactive: 786-0 28.2 µM | A498 22.8 µM | A549 31.6 µM | ACHN 27.7 µM | CAKI-1 18.5 µM | CCRF-CEM 32.4 µM | DLD-1 30.1 µM | DMS-114 30.6 µM | DMS-273 33.7 µM | EKVX 32 µM | HCC 2998 35.6 µM | HCT-116 33.9 µM | HL-60 31.6 µM | HOP-62 27.4 µM | HT-29 28.2 µM | IGROV-1 30.9 µM | K562 32.1 µM | KM12 32.1 µM | LOX IMVI 29.9 µM | LXFL 529 29.2 µM | M14 34.9 µM | M19-MEL 40.3 µM | MOLT-4 28.8 µM | Malme-3M 27.6 µM | NCI-H23 29 µM | NCI-H460 24.5 µM | NCI-H522 23.7 µM | OVCAR-3 33.3 µM | OVCAR-4 37.5 µM | OVCAR-8 33.5 µM | RPMI-8226 32.5 µM | RXF 393 43.3 µM | RXF 631 38.2 µM | SF-268 35.5 µM | SF-295 27 µM | SF-539 38 µM | SK-MEL-28 28.2 µM | SK-MEL-2 29.4 µM | SK-MEL-5 22.8 µM | SK-OV-3 14.8 µM | SN12C 41.5 µM | SNB-19 57.5 µM | SNB-75 21.3 µM | SR 38.5 µM | SW-620 33.5 µM | U-251 36.9 µM | UACC-257 24.3 µM | UACC-62 16.9 µM | UO-31 49 µM
